# Tests used:
# c9 patient-derived iPSCs = assay: Cell viability; assay type: cell-based, human; conditions: 1-1000 nM
# Method: Cell Viability. Lymphoblastoid cells were seeded in 96-well plate (˜10^4 cells/well) overnight and then treated with compounds for 48 h. The cell viability was measured by CellTiter-Fluor™ Cell Viability Assay per the manufacturer's protocol. For iPSCs, cells (diluted 1:4 after harvesting from a 100 mm dish) were seeded in Matrigel-coated 24-well plate. After 24 h, the compounds were added for 48 h and cell viability was measured by AlamarBlue™ Cell Viability Reagent (DAL1025, Thermo Fisher Scientific) per the manufacturer's protocol.
# [1] = system: C9orf72 exon 1b transcripts lacking r(G4C2)exp; assay: C9orf72 exon 1b RT-qPCR in patient-derived LCLs; assay type: cell-based, human; conditions: any concentration
# Method: Measuring Levels of C9orf72 and C9orf72 Variants by RT-qPCR. LCLs were seeded in 6-well plate (˜10^6 cells in 2 mL of growth medium) and incubated overnight at 37° C. Cells were then treated with various concentrations of compound for 24 h or with G4C2-ASO and Control-ASO (100 nM), delivered by transfection with Lipofectamine RNAiMax. RNA was extracted as described above and the expression of C9orf72 variants was determined by RT-qPCR. […] For compound treatment well, medium change was performed with fresh compound every 3-4 days. RNA was extracted as described above and the expression of C9orf72 variants was determined by RT-qPCR.
# [2] = target: T1, ternary complex r(G4C2)66, RNase L and 7 (Homo sapiens, UniProt Q05823); assay: RNase L RNA immunoprecipitation in HEK293T cells; assay type: cell-based; conditions: 500 nM, compared to vehicle
# T1 construct: for degradation by recruiting the endogenous nuclease Rnase L; endogenous in cells; host or cells: HEK293T cells transfected with the (G4C2)66-No ATG-GFP plasmid (RNA only)
# Method: RNA Immunoprecipitation. HEK293T cells were transfected with (G4C2)66-No ATG-GFP plasmid as described above, split into in 6-well plates, grown to ˜70% confluency, and treated with 500 nM 7 diluted in growth media for 24 h. The cell was washed with 1×PBS, removed from the plate with Accutase (Innovative Cell Technologies, Inc.), and then washed with 1×PBS. Cells were then lysed in 100 μL of M-PER buffer supplemented with 80 U RNaseOUT Recombinant Ribonuclease Inhibitor (Invitrogen) and 1× Protease Inhibitor Cocktail III for Mammalian Cells (Research Products International Corp.) per manufacturer's recommendations. The protein samples were tumbled overnight at 4° C. with Dynabeads Protein A (Life Technologies) that were bound to either β-actin mouse primary antibody (Cell Signaling Technologies; 3700S) or Rnase L mouse primary antibody (Santa Cruz Biotechnology; sc-74405). After antibody incubation, the beads were washed three times with 1×PBS supplemented with 0.02% Tween-20 and total RNA was extracted from beads using a miRNeasy Mini Kit (Qiagen) according to manufacturer's instructions.
# Relative RNA expression levels before and after pull-down were determined by the ΔΔCt method and normalized to β-actin as a housekeeping gene.
# T1 sequence (Q05823 whole entry, one chain of several): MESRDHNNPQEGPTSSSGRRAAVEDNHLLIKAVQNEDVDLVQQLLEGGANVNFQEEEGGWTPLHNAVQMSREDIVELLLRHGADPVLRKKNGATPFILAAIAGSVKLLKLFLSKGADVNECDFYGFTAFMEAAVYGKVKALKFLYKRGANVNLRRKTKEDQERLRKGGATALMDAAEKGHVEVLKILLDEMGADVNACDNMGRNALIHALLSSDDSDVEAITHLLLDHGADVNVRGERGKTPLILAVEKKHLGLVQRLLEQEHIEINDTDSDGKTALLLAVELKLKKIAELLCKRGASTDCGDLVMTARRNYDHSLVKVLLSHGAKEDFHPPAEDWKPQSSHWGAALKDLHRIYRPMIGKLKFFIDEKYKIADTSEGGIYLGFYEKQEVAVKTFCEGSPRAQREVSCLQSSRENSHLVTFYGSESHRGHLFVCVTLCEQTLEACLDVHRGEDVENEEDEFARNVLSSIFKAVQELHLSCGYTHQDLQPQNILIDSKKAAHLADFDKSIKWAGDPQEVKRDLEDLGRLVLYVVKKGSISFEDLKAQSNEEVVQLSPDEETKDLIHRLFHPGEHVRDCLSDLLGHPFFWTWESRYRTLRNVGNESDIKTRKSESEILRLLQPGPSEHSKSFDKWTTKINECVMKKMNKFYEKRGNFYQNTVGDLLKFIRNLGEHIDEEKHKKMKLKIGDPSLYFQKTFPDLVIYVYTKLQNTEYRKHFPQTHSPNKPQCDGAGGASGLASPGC
Compound,toxicity (c9 patient-derived iPSCs),C9orf72 transcripts that lack r(G4C2)exp (exon 1b) [1],enrichment of r(G4C2)exp-containing mRNA in anti-Rnase L immunoprecipitated fractions [2] [fold]
Cc1c2ccncc2c(C)c2c1[nH]c1ccc(OCCOCCOCCNCCOCCOCCOc3ccc4[nH]c5c(C)c6ccncc6c(C)c5c4c3)cc12 [Compound 3],no toxicity,,
CCOC(=O)C1=C(Nc2ccccc2)S/C(=C\c2ccc(OCCOCCOCCOCCNC(=O)CCC(=O)N(CCOCCOCCOc3ccc4[nH]c5c(C)c6ccncc6c(C)c5c4c3)CCOCCOCCOc3ccc4[nH]c5c(C)c6ccncc6c(C)c5c4c3)c(O)c2)C1=O [Compound 7],,no decrease,~2
